Source: patent US20070089847A1, “Anti-microbial paper products having a substituted 1,2-dihydroquinoline” (Novus International, Inc., priority 2005, published 2007)

Tests used:
Assay type in all cases: cell-based
[1] = system: Aspergillus niger ATCC 9642 and Aspergillus flavus ATCC 9643; experiment: In vitro disk assay of antifungal properties, agar plates containing test agent (Example 3); settings: 48 hours at 25° C.
Experimental: In this assay, paper disks were soaked in a fungal solution and placed on the surface of agar plates containing different concentration of the test agent. The radius of fungal growth radiating from each disk was considered indicative of the degree of inhibition by the agent relative to a control.
The test agents were diluted in DMSO or water and tested at several different concentrations. The test agents were added to the agar solution after sterilization, but prior to solidification. […] The plates were incubated for 48 hours at 25° C. The zones of fungal growth (or no growth) were analyzed and the minimum total inhibitory concentration (%) was estimated for each agent.

[2] = system: Aspergillus niger ATCC 9642, Aspergillus flavus ATCC 9643, and Chaetomium globosum ATCC 6205; experiment: ASTM D 2020 fungal resistance test of Santoquin with Kathon 893 as control biocide (Example 2); settings: for Observed Fungal Growth after 14 Days incubation at 28° C.: replicates 1-3
Experimental: (§1) One biocide sample, labeled Santoquin® was tested for fungal resistance using the ASTM D 2020 Standard Test Method for Mildew (Fungus) Resistance of Paper and Paperboard protocol. This test method was designed for the qualitative determination of mildew (fungus) resistance of paper and paperboard, particularly those types that have been given a fungus resistant treatment. Specific test conditions applied to this project are described below, but at all times the ASTM D 2020 test protocol was strictly followed.
The Santoquin® biocide was diluted with DMSO and tested at two different concentrations: 0.1% and 1.0%. The biocide Kathon 893 was diluted to 0.1% and 1.0% in water and used as a control biocide. DMSO was used as a control diluent. The fungal inoculum was comprised of three different species: Aspergillus niger ATCC 9642, Aspergillus flavus ATCC 9643, and Chaetomium globosum ATCC 6205.
(§2) Glass fiber filter paper was treated with two different concentrations (0.1% and 1.0%) of Santoquin® and allowed to dry overnight. The filter paper carriers, tested in triplicate, were placed in Petri dishes on mineral salts agar and inoculated with the fungal inoculum. The samples were incubated at 28° C. for 2 weeks and examined daily during the first week of incubation for the growth of the test organisms.
(§3) If no growth was observed on a sample after the first week of incubation, the sample was incubated for an additional seven days. […] If, after two weeks, there was no detectable growth of test organisms, the sample was considered fungus resistant.

[3] = system: Aspergillus niger ATCC 9642, Aspergillus flavus ATCC 9643, and Chaetomium globosum ATCC 6205; experiment: ASTM D 2020 fungal resistance test of five biocides on treated glass fiber filter paper (Example 1); settings: for Observed Fungal Growth after 14 Days incubation at 28° C., 1: replicate 1; for Observed Fungal Growth after 14 Days incubation at 28° C., 2: replicate 2; for Observed Fungal Growth after 14 Days incubation at 28° C., 3: replicate 3
Experimental: as §1, with “Five different biocides at varying concentrations were” for “One biocide sample, labeled Santoquin® was”
All five biocides (Santoquin®, HMTBA-Cu, BIOX-AUSD, Tox-Guard*Dry, and Metasol-TK 100) were tested at three different concentrations (200, 400, and 600 ppm). Santoquin®, HMTBA-Cu, and BIOX-AUSD were diluted in dimethyl sulfoxide (DMSO), while Tox-Guard*Dry and Metasol-TK100 were diluted in water. DMSO was used a control diluent. The fungal inoculum was comprised of three different species: Aspergillus niger ATCC 9642, Aspergillus flavus ATCC 9643, and Chaetomium globosum ATCC 6205.
as §2, with “the individual test biocides at the respective” for “two different”, “listed in Table 1” for “(0.1% and 1.0%) of Santoquin®”
as §3

[4] = both concentrations (0.1% and 1.0%)
[5] = all three concentrations (200, 400, and 600 ppm)

CCOc1ccc2c(c1)C(C)=CC(C)(C)N2 [Santoquin, 6-ethoxy-1,2-dihydro-2,2,4-trimethylquinoline]
Minimum Total Inhibitory Concentration (%) [1]: >0.5%
Observed Fungal Growth after 14 Days incubation at 28° C. ([2]; 0.1%): No growth
Observed Fungal Growth after 14 Days incubation at 28° C. ([2]; 1.0%): No growth
fungal growth at the end of the two weeks [2, 4]: no fungal growth
fungal resistance classification in the ASTM D 2020 test [2, 4]: fungal resistant
fungal growth at the end of two weeks ([3]; 200 ppm): fungal growth
fungal resistance classification in the ASTM D 2020 test ([3]; 200 ppm): fungus non-resistant
Observed Fungal Growth after 14 Days incubation at 28° C., 1 ([3]; 200 ppm): Growth
Observed Fungal Growth after 14 Days incubation at 28° C., 2 ([3]; 200 ppm): Growth
Observed Fungal Growth after 14 Days incubation at 28° C., 3 ([3]; 200 ppm): Growth
fungal growth at the end of two weeks ([3]; 400 and 600 ppm): no fungal growth
fungal resistance classification in the ASTM D 2020 test ([3]; 400 and 600 ppm): fungal resistant
Observed Fungal Growth after 14 Days incubation at 28° C., 1 ([3]; 400 ppm): No Growth
Observed Fungal Growth after 14 Days incubation at 28° C., 2 ([3]; 400 ppm): No Growth
Observed Fungal Growth after 14 Days incubation at 28° C., 3 ([3]; 400 ppm): No Growth
Observed Fungal Growth after 14 Days incubation at 28° C., 1 ([3]; 600 ppm): No Growth
Observed Fungal Growth after 14 Days incubation at 28° C., 2 ([3]; 600 ppm): No Growth
Observed Fungal Growth after 14 Days incubation at 28° C., 3 ([3]; 600 ppm): No Growth

CSCCC(O)C(=O)[O-].CSCCC(O)C(=O)[O-].[Cu+2] (stereo not drawn) [Mintrex Cu, Cu(HMTBA)2]
Minimum Total Inhibitory Concentration (%) [1]: 0.5%
Observed Fungal Growth after 14 Days incubation at 28° C., 1 ([3]; 200 ppm): Growth
Observed Fungal Growth after 14 Days incubation at 28° C., 2 ([3]; 200 ppm): Growth
Observed Fungal Growth after 14 Days incubation at 28° C., 3 ([3]; 200 ppm): Growth
Observed Fungal Growth after 14 Days incubation at 28° C., 1 ([3]; 400 ppm): Growth
Observed Fungal Growth after 14 Days incubation at 28° C., 2 ([3]; 400 ppm): Growth
Observed Fungal Growth after 14 Days incubation at 28° C., 3 ([3]; 400 ppm): Growth
Observed Fungal Growth after 14 Days incubation at 28° C., 1 ([3]; 600 ppm): Growth
Observed Fungal Growth after 14 Days incubation at 28° C., 2 ([3]; 600 ppm): Growth
Observed Fungal Growth after 14 Days incubation at 28° C., 3 ([3]; 600 ppm): Growth
fungal growth at the end of the two weeks [3, 5]: fungal growth
fungal resistance classification in the ASTM D 2020 test [3, 5]: fungus non-resistant
